Measured values from ChEMBL document CHEMBL5120903, “Constituents of Croton megalocarpus with Potential Anti-HIV Activity” (J Nat Prod, 2022).

Key:
[1] = Cytotoxicity against human FM55M1 cells assessed as reduction in cell viability measured upto 50 uM incubated for 72 hrs by cell titre 96 reagent based plate reader analysis; format: toxicity; conditions: fm55m1, 72 h
[2] = Cytotoxicity against human MT4 cells and measured after 5 days by MTT assay; format: toxicity, cell-based
[3] = test system: Human immunodeficiency virus 1; experiment: Anti-retroviral activity against HIV-1 IIIB infected in human MT4 cells assessed as inhibition of viral replication and measured after 5 days by MTT assay; format: functional, organism-based; conditions: Human immunodeficiency virus 1, IIIB, MT4, 120 h
[4] = molecular target: Human immunodeficiency virus type 1 protease (Human immunodeficiency virus 1) (UniProt Q72874); experiment: Inhibition of HIV-1 protease at 10 ug/ml by fluorescence based plate reader assay relative to control; conditions: dose 10.0 µg/ml

| Structure (SMILES) | Activity [1] | IC50 at 5 days [2] [µM] | IC50 [3] [µM] | inhibition [4] [%] |
| --- | --- | --- | --- | --- |
| C=C1CC[C@@H]2OC(=O)C(C)=C2[C@@H]2[C@@H]1[C@@]13O[C@@]1([C@@H](Cl)[C@@H](C)[C@H]3OC(C)=O)[C@@H](O)[C@@]2(C)O | Non-Toxic | 209 | 0.028 | 63 |
| C=C1CC[C@]2(O)OC(=O)C(C)=C2[C@@H]2[C@@H]1[C@@]13O[C@@]1(C[C@@H](C)[C@H]3O)[C@H]1O[C@@]21C | Non-Toxic | 510 | 0.0055 | 75 |
